# Experimental data: ChEMBL document CHEMBL3132841, “Synthesis and biological evaluation of coumarin1,2,3-triazoledithiocarbamate hybrids as potent LSD1 inhibitors” (Medchemcomm, 2014)
# The source made the active and inactive calls. The rule behind the calls is not given here.
# Experiments:
# [1] = target: Lysine-specific histone demethylase 1A (Homo sapiens, UniProt O60341)
# Description: Inhibition of recombinant human LSD1 expressed in Escherichia coli BL21(DE3) using H3K4me2 as substrate by fluorescence assay
# [2] = target: T1, Amine oxidase [flavin-containing] B (Homo sapiens, UniProt P27338)
# T1 sequence (P27338 whole entry): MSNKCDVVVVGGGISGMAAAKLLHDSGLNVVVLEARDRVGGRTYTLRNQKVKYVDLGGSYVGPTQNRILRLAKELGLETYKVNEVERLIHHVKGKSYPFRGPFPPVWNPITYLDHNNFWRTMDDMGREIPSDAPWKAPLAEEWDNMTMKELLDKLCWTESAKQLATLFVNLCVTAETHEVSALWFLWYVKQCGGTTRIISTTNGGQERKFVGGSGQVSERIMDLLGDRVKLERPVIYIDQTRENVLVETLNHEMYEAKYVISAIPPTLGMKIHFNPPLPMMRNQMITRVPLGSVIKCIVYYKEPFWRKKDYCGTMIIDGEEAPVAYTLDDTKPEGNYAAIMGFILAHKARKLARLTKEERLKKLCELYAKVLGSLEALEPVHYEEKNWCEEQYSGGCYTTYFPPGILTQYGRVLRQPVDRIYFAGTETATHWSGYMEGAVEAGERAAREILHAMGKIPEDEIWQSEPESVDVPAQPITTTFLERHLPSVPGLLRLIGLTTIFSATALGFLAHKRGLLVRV
# Description: Inhibition of MAO-B (unknown origin)
# MGC-803 = assay: Effect on total H3 protein expression in human MGC803 cells at 0.1 to 0.5 uM after 48 hrs by Western blot analysis; type: functional, cell-based
# [3] = target: T2, Amine oxidase [flavin-containing] A (Homo sapiens, UniProt P21397)
# T2 sequence (P21397 whole entry): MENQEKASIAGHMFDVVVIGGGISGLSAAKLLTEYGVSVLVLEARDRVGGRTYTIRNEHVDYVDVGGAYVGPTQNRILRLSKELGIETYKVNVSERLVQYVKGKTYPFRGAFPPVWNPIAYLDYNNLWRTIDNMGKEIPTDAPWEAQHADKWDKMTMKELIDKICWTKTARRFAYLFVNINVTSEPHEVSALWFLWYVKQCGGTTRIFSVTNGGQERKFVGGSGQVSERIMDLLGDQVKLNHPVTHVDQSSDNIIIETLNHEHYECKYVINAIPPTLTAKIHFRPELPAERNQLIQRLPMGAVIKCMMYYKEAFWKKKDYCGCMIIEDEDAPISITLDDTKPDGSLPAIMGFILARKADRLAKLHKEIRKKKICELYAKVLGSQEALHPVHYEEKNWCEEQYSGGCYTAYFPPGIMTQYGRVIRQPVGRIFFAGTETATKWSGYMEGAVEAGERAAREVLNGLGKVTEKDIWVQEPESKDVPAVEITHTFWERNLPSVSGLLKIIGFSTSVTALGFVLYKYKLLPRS
# Description: Inhibition of MAO-A (unknown origin)
SMILES,IC50 [1] [µM],other results
CC(C)(C)OC(=O)N1CCN(C(=S)SCc2cn(Cc3cc(=O)oc4ccc(Cl)cc34)nn2)CC1,> 125,
CC(C)(C)OC(=O)N1CCN(C(=S)SCc2cn(Cc3cc(=O)oc4cc(O)ccc34)nn2)CC1,,IC50 [2]: > 1250 µM; Activity (MGC-803): inactive; IC50 [3]: > 1250 µM
CC(C)(C)OC(=O)N1CCN(C(=S)SCc2cn(Cc3cc4ccccc4oc3=O)nn2)CC1,> 125,

# Second part, led by results:
IC50 [1] [µM],SMILES,other results
> 125,Cc1cc(O)cc2oc(=O)cc(Cn3cc(CSC(=S)N4CCN(C(=O)OC(C)(C)C)CC4)nn3)c12,
> 125,Cc1ccc2oc(=O)cc(Cn3cc(CSC(=S)N4CCN(C(=O)OC(C)(C)C)CC4)nn3)c2c1,
103,CC(C)(C)OC(=O)N1CCN(C(=S)SCc2cn(Cc3cc4ccc(O)cc4oc3=O)nn2)CC1,
